The source of these data is PMC11169542, “A probe for NIR-II imaging and multimodal analysis of early Alzheimer’s disease by targeting CTGF” (Nature Communications, 2024).

The nature of data set [1]: Parallel artificial membrane permeability assay (PAMPA) mimicking BBB. Format: in vitro ADME. To be noted: for PAMPA permeability Pe: precoated PAMPA plate, 40 μM in PBS, 5 h, room temperature, ICP-MS. Here is the method: A parallel artificial membrane permeability assay was performed in a 96-well precoated PAMPA plate system (Corning Gentest # 353015). The experimental solutions of DGC were prepared by diluting the stock solutions (10 mM) in PBS at a final concentration of 40 μM and then added to the donor portion of the plate (300 μL/well), while PBS (200 μL/well) was added to the acceptor portion, and the DMSO concentration was lower than 1%. The filter plate was then coupled with the receiver plate, and the plate assembly was incubated at room temperature without agitation for 5 h. Samples of the initial donor solution (C0) were collected and stored at 4 °C. At the end of the incubation, samples were collected from the donor and acceptor plates and then added to aqua regia (HCl: HNO3, volume ratio = 3:1). The C0 samples were treated similarly. The final concentrations of DGC in the donor, acceptor, and T0 wells were quantified by the ICP-MS system (Thermo Elemental X7, USA). The results were used to calculate an effective permeability (Pe, cm/s) value. Permeability of DGC was calculated using the following Eq. (1):1 Pe={-ln[1-CA(t)/Ceq]}/[A×(1/VD+1/VA)×t] Where A = filter area (0.3 cm^2), t = incubation time (seconds), CA(t) = compound concentration in acceptor well at time t, VD = donor well volume (0.3 mL), VA = acceptor well volume (0.2 mL), CD(t) = compound concentration in donor well at time t, and Ceq was calculated using the following Eq. (2):2 Ceq=[CD(t)×VD+CA(t)×VA]/(VD+VA)
Background: In PAMPA a lipid-coated filter parts donor from acceptor wells.

In data set [2] the test system is CTGF. Briefly: Quantitating CTGF in DGC-labelled cells by ICP-MS. Format: cell-based. Here is the method:
After U87MG, SH-SY5Y, and CTX TNA2 cells were imaged by a laser confocal microscopy system, these cells labeled with DGC were quantitatively analyzed by an ICP-MS system (Thermo Elemental X7, USA). Each cell group in the glass vials was digested by adding 5 mL aqua regia (HCl: HNO3 = 3:1) overnight. Subsequently, the aqua regia was heated to evaporate to the last drop to be diluted by a mixture of 2% HNO3 and 1% HCl. A standard curve of Au was made to quantify the concentration of Au in different cells. ICP-MS was used to test the Au signal in triplicates.

The target of data set [3] is T1, CTGF (Mus musculus, UniProt P29268).
T1 construct: brain sections of the age-matched wild-type C57BL/6J mice were used as controls; from tissue; host or cells: brain of APP/PS1 transgenic and wild-type C57BL/6J mice (sections, living animal, perfused isolated brain)
T1 sequence (P29268 26-348): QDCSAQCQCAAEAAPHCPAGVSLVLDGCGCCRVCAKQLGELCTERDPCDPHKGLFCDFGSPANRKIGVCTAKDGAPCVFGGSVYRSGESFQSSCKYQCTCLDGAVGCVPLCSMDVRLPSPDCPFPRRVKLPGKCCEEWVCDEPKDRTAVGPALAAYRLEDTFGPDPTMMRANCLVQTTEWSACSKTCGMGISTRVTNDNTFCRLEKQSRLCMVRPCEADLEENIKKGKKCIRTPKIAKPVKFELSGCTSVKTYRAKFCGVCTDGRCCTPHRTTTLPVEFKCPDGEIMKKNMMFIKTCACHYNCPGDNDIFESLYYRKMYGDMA
Put plainly: In vivo NIR-II imaging of brain after DGC injection. To be noted: APP/PS1 mice. Also noted: species or system APP/PS1 and wild-type C57BL/6J mice. Here is the method:
All animal procedures were performed under an approved protocol of the Ethics Committee of Beijing University of Technology, China. Female APP/PS1 mice and age-matched wild-type C57BL/6J mice were shaved before background imaging. For NIR-II imaging in vivo with DGC, the mice (n = 3) were fasted overnight before the experiment and then injected intravenously with DGC (20 mg/kg, 200 μL). NIR-II imaging of the brains was carried out on an In vivo Master (Grand-imaging Technology) equipped with an InGaAs camera C-RED2 (Firstlight) at different time points after injection of DGC (λ ex = 808 nm, 1000 nm longpass (LP) filter (Edmund Optics)). The excitation intensity of the 808 nm laser (Wuhan Grand-imaging Technology) was about […] and the optical images were acquired using an exposure time of 50 ms. Imaging data were analyzed by ImageJ software.

Data set [4] can be described thus: Biosafety: blood tests and organ pathological analysis (H&E staining). Format: in vivo. Conditions: C57BL/6J mice, 20 mg/kg DGC, vs untreated normal mice. The source says:
In order to clarify the NIR-II signal in AD brains when in vivo imaging is arisen from the DGC probe that bound to CTGF, we selected 3-month-old APP/PS1 mice representing early-stage AD and the age-matched WT mice as control to performed ex vivo multimodal analysis of the brain sections. […] To exclude the influence of vascular retention, we emptied the cerebral vessels by cardiac perfusion and performed ex vivo imaging of the brains. […] For brain sections made from AD mice after tail vein injection of DGC, the red fluorescence observation and LA-ICP-TOF-MS of DGC, as well as a POD-like catalysis test were performed. […] In Fig. 6c, the colocalization of DGC (red fluorescence) and CTGF (green fluorescence) on the ex vivo brain sections confirmed the specificity of DGC targeting CTGF in vivo. To further identify the cellular target of DGC in the brain of APP/PS1 mice, we carried out immunofluorescence staining on the ex vivo brain sections after tail vein injection of DGC where cell-specific fluorescent antibodies for microglia (Iba 1), neurons (NeuN), vascular endothelial cell (CD31) and reactive astrocytes (GFAP) were applied. […] The biosafety of DGC in C57BL/6J mice under the NIR-II imaging condition was evaluated by blood tests (blood cells and biochemical analysis) and organ pathological analysis (H&E staining).

Ends that are not written are not given here.

In the case of “DGC: CTGF-targeting peptide-coated gold nanocluster: one Au26 gold nanocluster coated by eight DAG cyclic peptides, NIR-II and red fluorescence (CDAGRKQKC; also: cyclic peptide, ring not given here, eight peptides on one Au26 nanocluster via Cys Au-S bonds)”, the “BBB permeability class (PAMPA)” value in data set [1] (40 μM) is “high BBB permeability”. Also, the “PAMPA permeability Mean Pe” value in data set [1] (at several concentrations) is “higher than 1.5 * 10^-6 cm/s”. For the same substance, the entries for the “PAMPA permeability Pe” value in data set [1] (replicate 1), in data set [1] (replicate 2) and in data set [1] (replicate 3) were 21.21 nm/s, 26 nm/s and 17.24 nm/s, respectively. For the same substance, the “ICP-MS DGC (Au) content per cell” value in data set [2] (DGC-labelled CTX TNA2 cells, replicate 1) came out at 1.359; in data set [2] (DGC-labelled CTX TNA2 cells, replicate 2), 1.246; in data set [2] (DGC-labelled CTX TNA2 cells, replicate 3) it was 1.418; in data set [2] (DGC-labelled SH-SY5Y cells, replicate 1) it was 3.579; in data set [2] (DGC-labelled SH-SY5Y cells, replicate 2), 3.885; in data set [2] (DGC-labelled SH-SY5Y cells, replicate 3), 3.913. For the same substance, the “ICP-MS DGC (Au) content per cell” value was determined as 9.5834 in data set [2] (DGC-labelled U87MG cells, replicate 1); 9.979 in data set [2] (DGC-labelled U87MG cells, replicate 2); 9.837 in data set [2] (DGC-labelled U87MG cells, replicate 3). The “NIR-II fluorescence in the brains” value in data set [3] (24 h after injection) is given as “still observed”. In data set [3] (after tail vein injection of DGC), the “time of peak brain NIR-II signal” value is reported as 4 h. The “abnormalities in blood parameters and major organs” value in data set [4] is “did not induce any abnormalities in blood parameters and major organs”.
